What was measured:
NPC1 = target: T1, NPC1 (Cricetulus griseus, UniProt Q9JLG3); settings: cited from earlier work; for inhibition of P-X cross-linking to NPC1: cultured cells
T1 construct: CHO-7 cells in the medium are deprived of cholesterol to induce the LDL receptors biosynthesis; endogenous in cells; host or cells: CHO-7 cells
T1 sequence (Q9JLG3 23-1277): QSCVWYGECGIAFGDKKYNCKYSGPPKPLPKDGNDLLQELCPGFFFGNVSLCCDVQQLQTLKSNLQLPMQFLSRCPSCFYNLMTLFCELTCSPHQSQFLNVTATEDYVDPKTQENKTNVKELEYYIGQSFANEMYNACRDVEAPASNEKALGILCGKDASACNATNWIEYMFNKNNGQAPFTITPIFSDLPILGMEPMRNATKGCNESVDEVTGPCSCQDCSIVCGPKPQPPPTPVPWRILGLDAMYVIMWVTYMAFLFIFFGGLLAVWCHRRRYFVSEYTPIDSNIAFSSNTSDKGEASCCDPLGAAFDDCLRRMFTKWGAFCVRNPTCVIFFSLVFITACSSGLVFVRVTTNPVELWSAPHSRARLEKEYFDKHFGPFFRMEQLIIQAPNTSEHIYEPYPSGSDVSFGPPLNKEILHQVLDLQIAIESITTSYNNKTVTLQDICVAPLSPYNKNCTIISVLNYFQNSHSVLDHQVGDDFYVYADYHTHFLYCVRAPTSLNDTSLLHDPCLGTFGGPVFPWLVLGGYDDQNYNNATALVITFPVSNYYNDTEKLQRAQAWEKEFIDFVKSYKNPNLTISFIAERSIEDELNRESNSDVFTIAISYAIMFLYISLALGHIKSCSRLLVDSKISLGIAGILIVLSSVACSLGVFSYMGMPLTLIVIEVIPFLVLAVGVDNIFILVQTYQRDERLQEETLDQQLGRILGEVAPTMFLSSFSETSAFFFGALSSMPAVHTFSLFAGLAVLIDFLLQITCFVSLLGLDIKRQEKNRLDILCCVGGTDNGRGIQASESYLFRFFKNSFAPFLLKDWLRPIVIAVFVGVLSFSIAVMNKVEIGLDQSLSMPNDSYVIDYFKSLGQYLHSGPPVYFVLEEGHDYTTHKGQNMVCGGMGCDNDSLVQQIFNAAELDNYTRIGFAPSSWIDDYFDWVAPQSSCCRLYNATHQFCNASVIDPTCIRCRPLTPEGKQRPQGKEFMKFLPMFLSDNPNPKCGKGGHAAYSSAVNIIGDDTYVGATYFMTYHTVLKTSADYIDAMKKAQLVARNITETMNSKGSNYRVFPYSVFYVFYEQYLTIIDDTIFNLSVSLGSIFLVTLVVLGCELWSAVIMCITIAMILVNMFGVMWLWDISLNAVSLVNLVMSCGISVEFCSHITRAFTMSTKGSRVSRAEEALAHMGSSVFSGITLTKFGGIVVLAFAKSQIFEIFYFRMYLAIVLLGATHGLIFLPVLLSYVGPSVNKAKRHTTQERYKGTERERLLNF

wild-type human NPC1 = test system: T2, wild-type human NPC1; assay: Cross-linking of P-X to NPC1 in intact HEK-293S GnTI- cells overexpressing NPC1; type: cell-based; settings: for inhibition of P-X cross-linking to WT NPC1 in intact cells: 0.3 μM P-X and 3 μM competitor, 1 h at 37 °C
T2 construct: expressed in transfected cells; host or cells: HEK-293S GnTI- cells (ATCC, CRL-3022), PEI transfection
Description: pNPC1 encoding wild-type human NPC1 (amino acids 1–1278) followed sequentially by three tandem copies of the Flag epitope tag ([…]) was constructed into pcDNA3.1. Expression is achieved with the cytomegalovirus (CMV) promoter. Point mutations were introduced into the coding region of pNPC1 by site-directed mutagenesis using the QuikChange II XL Site-Directed Mutagenesis Kit (Agilent Technologies, Santa Clara, CA) and primers which are indicated in Supplementary Table 2. The coding region of each plasmid was sequenced to ensure integrity of the construct.
For cross-linking of P-X to NPC1 and mutants in intact cells, the mammalian HEK-293S GnTI^- cells (ATCC, CRL-3022) overexpressing NPC1 and mutants were set up in 500 mL of freestyle medium with 2% FCS at a density of 2 × 10^6 cells per ml. The cells were transfected with 0.5 mg of the indicated plasmid using PEI (Polysciences) as the transfection agent. After 48 h, cell culture was aliquoted to 10 cm dishes. Each dish received a direct addition of DMSO (final concentration, 0.2%) containing 0.3 μM P-X and 3 μM of various competitor compounds as described in the figure legends. After incubation for 1 h at 37 °C in the dark and without a change of media, the cells were irradiated for 10 min at room temperature under 306-nm UV light (Atlanta Light Bulb Co.) in a UV Stratalinker 2400 apparatus (Stratagene). Cells were subjected to centrifugation at 4000 g for 5 min. The pellet was washed once with PBS and then solubilized with 1 mL of buffer containing 50 mM Hepes pH 7.5, 150 mM NaCl, 1%(wt/vol) n-Dodecyl-β-D-maltopyranoside (DDM, Anatrace). Each solubilized lysate was incubated at room temperature for 1 h, and clarified by centrifugation at 15000 g for 1 min. The supernatant was then transferred to a fresh tube and incubated with anti-FLAG M2 magnetic beads for 1 h. After which the beads were applied to a magnet, washed three times with 1 mL of wash buffer containing 50 mM Hepes pH 7.5, 150 mM NaCl, 0.02% (wt/vol) DDM, and eluted with 100 μL of wash buffer containing 15 μg of 3x FLAG peptide. The purified protein was then tagged with Alexa Fluor 532 using click chemistry as described above. An aliquot of each sample was subjected to 8% SDS/PAGE, and fluorescent-labeled proteins were visualized by in-gel fluorescence as described above. After scanning the gel, the proteins were transferred to nitrocellulose and blotted with mouse monoclonal anti-Flag.

[1] = test system: NPC1-mediated cholesterol export; settings: cited from earlier work
human NPC1 = test system: T3, human NPC1; settings: NPC1 reconstituted in lipid nanodiscs; cited from earlier work
T3 construct: Strep-tag; made in house; host or cells: HEK-293S GnTI- cells (baculovirus-mediated transduction)

[2] = test system: NPC1 mutants (W381E, L613E, Y628S, I685S, and Y1225E); assay: Cross-linking of P-X to NPC1 binding-site mutants in intact HEK293S cells; type: cell-based, human; settings: 0.3 μM P-X
Description: The I-Br binds to a hydrophobic cavity that is generated by the SSD, the MLD and the CTD in the center of NPC1 (Fig. 3d). Residues in the N-terminal loop and C-terminal helices of the MLD and the CTD, as well as TMs 3, 4, 5, and 13 contribute to the cavity that accommodates I-Br (Figs. 3d, 4a, b). The terminal sec-butyl moiety of I-Br inserts into the cavity and is contacted by residues W381, I609, L613, I685, F1087, I1220, and Y1225 (Fig. 4a, b). […] To validate our structural observation, we have generated five NPC1 mutants (W381E, L613E, Y628S, I685S, and Y1225E) located in the binding site and individually transfected the mutant cDNAs into HEK293S cells.
pNPC1 encoding wild-type human NPC1 (amino acids 1–1278) followed sequentially by three tandem copies of the Flag epitope tag ([…]) was constructed into pcDNA3.1. Expression is achieved with the cytomegalovirus (CMV) promoter. […]
For cross-linking of P-X to NPC1 and mutants in intact cells, the mammalian HEK-293S GnTI^- cells (ATCC, CRL-3022) overexpressing NPC1 and mutants were set up in 500 mL of freestyle medium with 2% FCS at a density of 2 × 10^6 cells per ml. […] An aliquot of each sample was subjected to 8% SDS/PAGE, and fluorescent-labeled proteins were visualized by in-gel fluorescence as described above. […]

For `CCC(C)n1ncn(-c2ccc(N3CCN(c4ccc(OCC5COC(Cn6cncn6)(c6ccc(Cl)cc6Cl)O5)cc4)CC3)cc2)c1=O` (stereo not shown) [Itraconazole mixture, itraconazole], the “inhibition of P-X cross-linking to NPC1” value (NPC1) is listed as “inhibited”, the “inhibition of P-X cross-linking to WT NPC1 in intact cells” value (wild-type human NPC1) is listed as “inhibits this reaction” and the “inhibition of cholesterol export from lysosomes” value [1] is listed as “inhibit cholesterol export from lysosomes”.

In the case of `CC(=O)N1CCN(c2ccc(OCC3COC(Cn4ccnc4)(c4ccc(Cl)cc4Cl)O3)cc2)CC1` (stereo not shown) [Ketoconazole, ketoconazole], the “inhibition of P-X cross-linking to NPC1” value (NPC1) is given as “did not block”, the “inhibition of P-X cross-linking to WT NPC1 in intact cells” value (wild-type human NPC1) is given as “could not inhibit” and the “inhibition of P-X cross-linking to WT NPC1 in intact cells” value (wild-type human NPC1; listed as ketoconazole) is given as “does not”.

For `C#CCOc1ccc(C(=O)c2ccc(C(=O)OC(C)C(CC)n3ncn(-c4ccc(N5CCN(c6ccc(OCC7COC(Cn8cncn8)(c8ccc(F)cc8F)O7)cc6)CC5)cc4)c3=O)cc2)cc1` (stereo not shown) [P-X], the “cross-linking of P-X to purified NPC1” value (human NPC1) is listed as “cross-linked”, the “cross-linking of P-X to NPC1 mutants in cells” value [2] is listed as “not efficiently cross-linked” and the “cross-linking of P-X to NPC1 in cultured cells” value (NPC1; added at nanomolar concentration) is listed as “can be cross-linked”. For the same molecule, the “cross-linking of P-X to WT NPC1 in intact cells” value (wild-type human NPC1; 0.3 μM P-X) was “can easily cross-link”.
